Test systems include HS 578T breast; UACC-62 melanoma; MOLT-4 leukemia; M14 melanoma; SNB-75 CNS; DU-145 prostate; KM12 colon; HCT-15 colon; HT29 colon; MDA-MB-231 breast.
Assay in all cases: DTP human tumour cell line panel, 48 h

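In this assay, cells in 96-well plates receive the compound at five concentrations for 48 hours. Endpoints are linearly interpolated between the surrounding concentrations. GI50 = concentration required for 50% inhibition of growth. TGI: concentration producing complete growth inhibition.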

In the case of `C=C1N(C=O)C(C)(C)N(O)C1(C)C`, the concentration for total growth inhibition (TGI) in the assay on HS 578T breast is more than 100 µM; in the assay on UACC-62 melanoma it was more than 100 µM; in the assay with MOLT-4 leukemia it was 84.4 µM; in the assay on M14 melanoma, more than 100 µM; with SNB-75 CNS, more than 100 µM; in the assay with DU-145 prostate it was more than 100 µM. The TGI in the assay with KM12 colon, in the assay with HCT-15 colon, in the assay with HT29 colon and with MDA-MB-231 breast was more than 100 µM throughout.

Take `C=C(C)OCOCCOC`: the TGI in the assay with HS 578T breast, in the assay on UACC-62 melanoma, in the assay on MOLT-4 leukemia, in the assay on M14 melanoma, with SNB-75 CNS and with DU-145 prostate was more than 100 µM throughout. The TGI in the assay with KM12 colon, in the assay on HCT-15 colon, in the assay with HT29 colon and with MDA-MB-231 breast was more than 100 µM throughout.

On to `Cc1cc(C)c2c(=O)cc(-c3cccc(F)c3)[nH]c2n1`, for which the TGI was 3.36 µM in the assay with HS 578T breast; more than 53.5 µM in the assay with MOLT-4 leukemia; more than 100 µM in the assay on M14 melanoma; more than 100 µM with SNB-75 CNS; more than 45.3 µM with DU-145 prostate; 13.3 µM in the assay with KM12 colon. Also, the figures for the TGI in the assay on HCT-15 colon, in the assay on HT29 colon and in the assay on MDA-MB-231 breast were more than 38.2 µM, 1.8 µM and 4.17 µM, respectively.

In the case of `CCc1c(CNc2ccc(C(=O)NC(CC(=O)O)C(=O)O)cc2)ccc2nc(N)nc(N)c12` (stereo not given), the TGI with HS 578T breast, in the assay with UACC-62 melanoma, in the assay on MOLT-4 leukemia, in the assay on M14 melanoma, in the assay on SNB-75 CNS and in the assay on DU-145 prostate was more than 1000 µM each time. In addition, the TGI with KM12 colon, with HCT-15 colon, with HT29 colon and in the assay with MDA-MB-231 breast was more than 1000 µM throughout. In addition, the GI50 with SNB-75 CNS is 115 µM; in the assay with DU-145 prostate, 0.148 µM; in the assay with MDA-MB-231 breast, more than 1000 µM.

As to `Cc1[nH]c(=O)nc(NCCNCCO)c1C(=O)Nc1cccc2cc3ccccc3cc12`, the TGI with HS 578T breast, with UACC-62 melanoma, with MOLT-4 leukemia, in the assay with M14 melanoma, with SNB-75 CNS and in the assay with DU-145 prostate was more than 100 µM in each case. In addition, the TGI with KM12 colon, with HCT-15 colon, in the assay with HT29 colon and in the assay with MDA-MB-231 breast was more than 100 µM throughout.

With `C[C@]12CCC(=O)[C@@H](CCC3=CC(=O)C=CC3=O)[C@@H]1CCC2=O`, the total growth inhibition concentration (TGI) was 43.6 µM with HS 578T breast; 44.1 µM in the assay on UACC-62 melanoma; more than 100 µM in the assay with MOLT-4 leukemia; 59.1 µM in the assay on M14 melanoma; 25.8 µM in the assay with SNB-75 CNS; 40.8 µM in the assay on DU-145 prostate. For the same molecule, the TGI in the assay on KM12 colon was 32 µM; in the assay on HCT-15 colon it was more than 31.6 µM; with HT29 colon, 82.2 µM; in the assay on MDA-MB-231 breast, 49.2 µM.

Consider `COc1ccccc1C1Nn2c(nc3ccccc3c2=O)N1c1ccc(C)cc1` (stereo not given), for which the TGI in the assay with HS 578T breast was found to be 27.9 µM; with UACC-62 melanoma it was 22.2 µM; in the assay with MOLT-4 leukemia, 11.4 µM; with M14 melanoma, 26.4 µM; in the assay on SNB-75 CNS, 30.5 µM; in the assay on DU-145 prostate it was 28.2 µM. Further, the TGI was found to be 60.3 µM with KM12 colon, 16.9 µM with HCT-15 colon, 29.5 µM in the assay on HT29 colon and 18.3 µM in the assay on MDA-MB-231 breast.

Take `COc1cc(-c2n/c(=C\c3c(O)[nH]c4ccc(Cl)cc34)cc3c2=Nc2ccccc2-3)ccc1F`: the GI50 with HS 578T breast is 2.07 µM; in the assay with UACC-62 melanoma, 1.65 µM; in the assay with MOLT-4 leukemia, 1.08 µM; with M14 melanoma it was 1.89 µM; with SNB-75 CNS it was 1.69 µM; in the assay on DU-145 prostate it was 2.18 µM. Also, the GI50 is 2.28 µM in the assay on KM12 colon, 2.49 µM in the assay with HCT-15 colon and 1.56 µM in the assay on MDA-MB-231 breast. Besides, the TGI in the assay on HS 578T breast turned out to be 5.92 µM; with UACC-62 melanoma, 3.2 µM; with MOLT-4 leukemia, 3.32 µM; with M14 melanoma it was 3.48 µM; in the assay with SNB-75 CNS, 4.6 µM; in the assay on DU-145 prostate it was 4.8 µM. Also, the TGI came out at 5.01 µM in the assay with KM12 colon, 6.98 µM with HCT-15 colon and 3.22 µM in the assay on MDA-MB-231 breast.

Consider `CC(C)C(CC(=O)OCC(CO)OC(=O)CC(C(C)C)C(C)C)C(C)C` (stereo not given), for which the TGI with HS 578T breast came to 21.5 µM; in the assay on UACC-62 melanoma, 32.8 µM; with MOLT-4 leukemia it was 31.5 µM; in the assay with M14 melanoma it was 29.5 µM; in the assay on SNB-75 CNS it was 21.8 µM; with DU-145 prostate it was 28.7 µM. In addition, the TGI came out at 32 µM in the assay on KM12 colon, 30.7 µM in the assay with HCT-15 colon, 32.1 µM in the assay on HT29 colon and 33.9 µM in the assay with MDA-MB-231 breast.

Turning to `Cc1cc(S(=O)(=O)Nc2n[nH]c(-c3ccccn3)n2)c(S)cc1Cl`, the TGI in the assay on HS 578T breast was 86.6 µM; in the assay on UACC-62 melanoma it was 34.8 µM; with MOLT-4 leukemia, more than 100 µM; in the assay on M14 melanoma, 44.5 µM; in the assay with SNB-75 CNS, 85.8 µM; with DU-145 prostate, 96 µM. Moreover, the TGI was more than 100 µM in the assay on KM12 colon, 20.9 µM in the assay on HCT-15 colon, 41.7 µM in the assay with HT29 colon and more than 100 µM in the assay on MDA-MB-231 breast.

Take `COc1cc(C(=O)Oc2ccc3c(c2)OCO3)cc(OC)c1OC`: the TGI in the assay on HS 578T breast, in the assay with UACC-62 melanoma, with MOLT-4 leukemia, in the assay with M14 melanoma, in the assay on SNB-75 CNS and in the assay on DU-145 prostate was more than 100 µM each time. The TGI in the assay on KM12 colon, in the assay with HCT-15 colon, with HT29 colon and in the assay on MDA-MB-231 breast was more than 100 µM throughout.

For `CN(C)CC1CCC/C(=C\c2ccc(OC(=O)c3ccc(Cl)cc3)cc2)C1=O` (stereo not given), the TGI came out at 10.3 µM with HS 578T breast; 13.4 µM in the assay with UACC-62 melanoma; 3.19 µM in the assay with MOLT-4 leukemia; 3.27 µM in the assay on M14 melanoma; 9.16 µM with SNB-75 CNS; 6.79 µM with DU-145 prostate. Further, the TGI with KM12 colon stood at 5.9 µM; with HCT-15 colon, 3.3 µM; in the assay on HT29 colon, 4.1 µM; in the assay on MDA-MB-231 breast, 5.73 µM.

As to `Cc1ccc2c(c1)-c1c(C#N)c(N)nc(-c3ccc(Cl)cc3)c1CCS2(=O)=O`, the TGI in the assay with HS 578T breast is 64.6 µM; in the assay on UACC-62 melanoma, more than 100 µM; with MOLT-4 leukemia, 68.7 µM; in the assay with M14 melanoma it was more than 100 µM; in the assay with SNB-75 CNS, 14.3 µM; in the assay on DU-145 prostate, more than 100 µM. Also, the TGI with KM12 colon, with HCT-15 colon, with HT29 colon and with MDA-MB-231 breast was more than 100 µM in each case.

`COc1cc(CC(C)NC(C)=O)cc(OC)c1` (stereo not given): the TGI in the assay with HS 578T breast, in the assay on UACC-62 melanoma, in the assay on MOLT-4 leukemia, in the assay with M14 melanoma, in the assay with SNB-75 CNS and in the assay on DU-145 prostate was more than 100 µM throughout. Besides, the concentration for total growth inhibition (TGI) in the assay with KM12 colon, in the assay on HCT-15 colon, in the assay on HT29 colon and in the assay with MDA-MB-231 breast was more than 100 µM throughout.

`CCC(O)(Cc1ccc(OC)cc1)c1ccc(OC)cc1` (stereo not given): the TGI with HS 578T breast, with UACC-62 melanoma, with MOLT-4 leukemia, in the assay with M14 melanoma, with SNB-75 CNS and in the assay with DU-145 prostate was more than 100 µM each time. Also, the TGI with KM12 colon, in the assay on HCT-15 colon, in the assay with HT29 colon and in the assay on MDA-MB-231 breast was more than 100 µM in each case.

Regarding `COc1cc(C(c2c(O)c3ccccc3oc2=O)c2c(O)c3ccccc3oc2=O)cc(Br)c1O`, the TGI with HS 578T breast turned out to be 51.8 µM; with UACC-62 melanoma it was 29.6 µM; in the assay with MOLT-4 leukemia, 64.8 µM; with M14 melanoma it was 31.4 µM; with SNB-75 CNS it was 39.4 µM; in the assay with DU-145 prostate it was 33.6 µM. Moreover, the TGI was determined as 38.7 µM in the assay with KM12 colon, 36.4 µM in the assay on HCT-15 colon, 37.1 µM in the assay on HT29 colon and 32.8 µM in the assay on MDA-MB-231 breast.

On to `CN(C)CCCNC(=O)c1cc(NC(=O)c2cc(NC(=O)CCCn3c4ccccc4c4ccccc43)cn2C)cn1C`, for which the TGI in the assay with HS 578T breast is 49.7 µM; in the assay on UACC-62 melanoma it was 23 µM; with MOLT-4 leukemia, more than 23.1 µM; in the assay with M14 melanoma, 12.3 µM; in the assay on SNB-75 CNS, 39.1 µM; with DU-145 prostate, 40.8 µM. Further, the total growth inhibition concentration (TGI) was 43.9 µM in the assay with KM12 colon, more than 75.5 µM with HCT-15 colon, more than 100 µM with HT29 colon and 20.9 µM in the assay with MDA-MB-231 breast. Further, the GI50 in the assay with UACC-62 melanoma is 7.28 µM; with MDA-MB-231 breast, 4.45 µM.

On to `CC[C@H](Nc1nc(C)nc(N)c1C#N)c1nc2cccc(NCc3ccc(C(=O)NO)cc3)c2c(=O)n1-c1ccccc1`, for which the GI50 in the assay with HS 578T breast was 2.45 µM; in the assay with UACC-62 melanoma it was 1.55 µM; with MOLT-4 leukemia, 1.36 µM; in the assay on M14 melanoma, 2.28 µM; with SNB-75 CNS, 1.73 µM; in the assay on DU-145 prostate it was 2.01 µM. In addition, the GI50 in the assay with KM12 colon was 1.81 µM; with HT29 colon, 1.76 µM; in the assay on MDA-MB-231 breast, 1.4 µM. Also, the TGI with HS 578T breast worked out at 8.36 µM; in the assay on UACC-62 melanoma it was 3.17 µM; with MOLT-4 leukemia, 5.82 µM; with M14 melanoma it was 5.85 µM; in the assay on SNB-75 CNS, 7.27 µM; with DU-145 prostate, 4.89 µM. Further, the results for the TGI in the assay on KM12 colon, with HT29 colon and with MDA-MB-231 breast were 3.45 µM, 4.45 µM and 3.36 µM, respectively.

One may read the TGI as the concentration giving total growth inhibition. High values mean lower sensitivity of the cells, low ones greater sensitivity of the cells. In general, GI50 refers to the concentration giving 50% growth inhibition.

Source of the values: PubChem BioAssay (NCI).
